Data set [1] concerns Influenza A virus. The data set can be described thus: Antiinfluenza activity against influenza A virus H1N1 infected in MDCK cells assessed as inhibition of virus-induced cytopathic effect after 36 hrs. In kind it is functional, organism-based. A general note: Damage to the host cells serves as the signal in cytopathic effect assays.
Data set [2] can be described thus: Selectivity index, ratio of TC50 for MDCK cells to IC50 for influenza A virus H3N2. It counts as toxicity, cell-based. The settings on record: dog, read-out: Selectivity Index.
Data set [3] in a line: Cytotoxicity against MDCK cells. In kind it is cell-based, Canis lupus familiaris. The settings on record: dog, read-out: TC50 (the source's name).
Data set [4] has as its system Influenza A virus. Put plainly: Antiinfluenza activity against influenza A virus H3N2 infected in MDCK cells assessed as inhibition of virus-induced cytopathic effect after 36 hrs. In kind it is functional, organism-based.
Data set [5] can be described thus: Selectivity index, ratio of TC50 for MDCK cells to IC50 for influenza A virus H1N1. It counts as toxicity, cell-based. The settings on record: dog, read-out: Selectivity Index.
For data set [6], the system named is Influenza B virus. The data set can be described thus: Antiinfluenza activity against influenza B virus infected in MDCK cells assessed as inhibition of virus-induced cytopathic effect after 36 hrs. It counts as functional, organism-based.
Data set [7] in a line: Selectivity index, ratio of TC50 for MDCK cells to IC50 for influenza B virus. In kind it is toxicity, cell-based. The settings on record: dog, read-out: Selectivity Index.
Data set [8] deals with Influenza A virus. The data set can be described thus: Antiinfluenza activity against influenza A virus H3N2 infected in MDCK cells assessed as inhibition of virus-induced cytopathic effect at 0.15 to 1.37 ug/ml after 36 hrs. It counts as functional, organism-based.

The source made the active and inactive calls. The rule behind the calls is not given here.

`C=C(C(=O)OCCCN1CCN(c2ccccc2)CC1)[C@@H]1CC[C@H](C)[C@@H]2CC(=O)C(C)=C2C1`: the IC50 (usually the midpoint of a concentration-inhibition curve) in data set [1] is 63.9 µM; in data set [4], 57.1 µM; in data set [6], above 11.2 µM. Further, the results for the selectivity ratio in data set [2] and in data set [5] were 3 and 2.7, respectively. Also, the CC50 in data set [3] came to 171 µM.

In the case of `C=C(C(=O)OCCCCBr)[C@@H]1CC[C@H](C)[C@@H]2CC(=O)C(C)=C2C1`, the IC50 in data set [1] amounted to 75.2 µM; in data set [4] it was 75.2 µM; in data set [6], 67.2 µM. Besides, the figures for the selectivity ratio in data set [2], in data set [7] and in data set [5] were 5.6, 6.2 and 5.6, respectively. For the same compound, the CC50 in data set [3] was 420 µM.

For the compound `C=C(C(=O)OCCN1CCN(C)CC1)[C@@H]1CC[C@H](C)[C@@H]2CC(=O)C(C)=C2C1`, the figures for the IC50 in data set [1], in data set [4] and in data set [6] were 129 µM, above 33 µM and above 33 µM, respectively. Also, the CC50 in data set [3] was found to be 231 µM. In addition, the selectivity ratio in data set [5] was 1.8.

On to `C=C(C(=O)OCCCCCCCCCCN1CCN(c2ccccc2)CC1)[C@@H]1CC[C@H](C)[C@@H]2CC(=O)C(C)=C2C1`, for which the IC50 in data set [1] is 2.4 µM; in data set [4], 94 µM; in data set [6] it was above 152 µM. For the same compound, the selectivity ratio is 4.9 in data set [2] and 188 in data set [5]. The inhibition entry in data set [8] was “Active”. In addition, the CC50 in data set [3] was determined as 456 µM.

For the compound `C=C(C(=O)OCCCn1cncn1)[C@@H]1CC[C@H](C)[C@@H]2CC(=O)C(C)=C2C1`, the IC50 in data set [1] was 24 µM; in data set [4], 34.6 µM; in data set [6], above 34.6 µM. The selectivity ratio in data set [2] came out at 9; in data set [5], 13. In data set [3], the CC50 is 311 µM.

On to `C=C(C(=O)OCCCCCCN1CCN(C)CC1)[C@@H]1CC[C@H](C)[C@@H]2CC(=O)C(C)=C2C1`, for which the IC50 in data set [1], in data set [4] and in data set [6] was above 9.6 µM in each case. Besides, the CC50 in data set [3] amounted to 86 µM.

For `C=C(C(=O)OCCCCCN1CCN(c2ccccc2)CC1)[C@@H]1CC[C@H](C)[C@@H]2CC(=O)C(C)=C2C1`, the IC50 in data set [1] was 20 µM; in data set [4], above 25.7 µM; in data set [6], above 25.8 µM. Besides, in data set [3], the CC50 came out at 112 µM. The selectivity ratio in data set [5] came out at 5.6.

Turning to `C=C(C(=O)OCCCCN1CCN(c2ccccc2)CC1)[C@@H]1CC[C@H](C)[C@@H]2CC(=O)C(C)=C2C1`, the IC50 was 79.8 µM in data set [1], above 79.8 µM in data set [4] and above 79.8 µM in data set [6]. Further, the CC50 in data set [3] came to 415 µM. Further, the selectivity ratio in data set [5] was 5.2.

In the case of `C=C(C(=O)OCCn1cncn1)[C@@H]1CC[C@H](C)[C@@H]2CC(=O)C(C)=C2C1`, the figures for the IC50 in data set [1], in data set [4] and in data set [6] were 83.8 µM, 74.9 µM and above 8 µM, respectively. The results for the selectivity ratio in data set [2] and in data set [5] were 3 and 2.68, respectively. Further, in data set [3], the CC50 amounted to 224 µM.

`C=C(C(=O)OCCCCCCn1cncn1)[C@@H]1CC[C@H](C)[C@@H]2CC(=O)C(C)=C2C1`: the IC50 in data set [1] is 48.2 µM; in data set [4], 14.9 µM; in data set [6] it was above 31 µM. The selectivity ratio in data set [2] amounted to 8; in data set [5], 2.48. Besides, the CC50 in data set [3] stood at 120 µM.

With `C=C(C(=O)OCCCBr)[C@@H]1CC[C@H](C)[C@@H]2CC(=O)C(C)=C2C1`, the IC50 in data set [1], in data set [4] and in data set [6] was above 101 µM in each case. The CC50 in data set [3] came out at 436 µM.

On to `C=C(C(=O)OCCCCN1CCN(C)CC1)[C@@H]1CC[C@H](C)[C@@H]2CC(=O)C(C)=C2C1`, for which the IC50 is 10.3 µM in data set [1], 71.5 µM in data set [4] and above 92.1 µM in data set [6]. Moreover, the selectivity ratio in data set [2] worked out at 9; in data set [5], 62.8. Also, the CC50 in data set [3] was 644 µM.

`C=C(C(=O)OCCBr)[C@@H]1CC[C@H](C)[C@@H]2CC(=O)C(C)=C2C1`: the IC50 in data set [1], in data set [4] and in data set [6] was above 314 µM in each case. In addition, in data set [3], the CC50 came out at 1360 µM.

Turning to `C=C(C(=O)OCCCCCCCCN1CCN(c2ccccc2)CC1)[C@@H]1CC[C@H](C)[C@@H]2CC(=O)C(C)=C2C1`, the IC50 is 92.6 µM in data set [1], above 160 µM in data set [4] and above 160 µM in data set [6]. Also, the CC50 in data set [3] is 333 µM. The selectivity ratio in data set [5] is 3.6.

With `C=C(C(=O)OCCCCCCN1CCN(c2ccccc2)CC1)[C@@H]1CC[C@H](C)[C@@H]2CC(=O)C(C)=C2C1`, the IC50 in data set [1], in data set [4] and in data set [6] was above 56.5 µM each time. The CC50 in data set [3] amounted to 394 µM.

Regarding `C=C(C(=O)OCCCCn1cncn1)[C@@H]1CC[C@H](C)[C@@H]2CC(=O)C(C)=C2C1`, the IC50 in data set [1] is 57.6 µM; in data set [4], 42.9 µM; in data set [6], 77.5 µM. The selectivity ratio in data set [2] was 9; in data set [7] it was 5; in data set [5] it was 6.7. The CC50 in data set [3] worked out at 386 µM.

As to `CCOC(=O)C1=C[C@@H](OC(CC)CC)[C@H](NC(C)=O)[C@@H](N)C1` [OSELTAMIVIR PHOSPHATE], the results for the IC50 in data set [1], in data set [4] and in data set [6] were 15.5 µM, 1.1 µM and above 500 µM, respectively. Besides, the selectivity ratio in data set [2] was found to be 1140; in data set [5], 81.3. Moreover, the CC50 in data set [3] came out at 1260 µM.

Regarding `C=C(C(=O)OCCCCCCCCCCN1CCN(C)CC1)[C@@H]1CC[C@H](C)[C@@H]2CC(=O)C(C)=C2C1`, the values for the IC50 in data set [1], in data set [4] and in data set [6] were 3.7 µM, 5.2 µM and above 25.4 µM, respectively. For the same compound, the selectivity ratio in data set [2] is 34; in data set [5], 47.6. Besides, the inhibition result in data set [8] was “Active”. Also, the CC50 in data set [3] came out at 177 µM.

Turning to `C=C(C(=O)OCCN1CCN(c2ccccc2)CC1)[C@@H]1CC[C@H](C)[C@@H]2CC(=O)C(C)=C2C1`, the IC50 in data set [1], in data set [4] and in data set [6] was 49.4 µM each time. Further, the selectivity ratio in data set [2], in data set [7] and in data set [5] was 9 each time. Moreover, the CC50 in data set [3] amounted to 445 µM.

As for `C=C(C(=O)O)[C@@H]1CC[C@H](C)[C@@H]2CC(=O)C(C)=C2C1` [PECHUELOIC ACID], the IC50 in data set [1] is above 1340 µM; in data set [4], 25.8 µM; in data set [6], above 4030 µM. In addition, the selectivity ratio in data set [2] was 181. For the same compound, the CC50 in data set [3] was found to be 4650 µM.

For the compound `NC(=O)c1ncn([C@@H]2O[C@H](CO)[C@@H](O)[C@H]2O)n1` [RIBAVIRIN], the IC50 came to 1.9 µM in data set [1], 3.9 µM in data set [4] and 14.7 µM in data set [6]. The selectivity ratio in data set [2] was found to be 329; in data set [7], 86.9; in data set [5] it was 666. Moreover, the CC50 in data set [3] was 1280 µM.

Regarding `C=C(C(=O)OCCCN1CCN(C)CC1)[C@@H]1CC[C@H](C)[C@@H]2CC(=O)C(C)=C2C1`, the IC50 in data set [1], in data set [4] and in data set [6] was above 95.5 µM throughout. Also, the CC50 in data set [3] is 667 µM.

Consider `C=C(C(=O)OCCCCCn1cncn1)[C@@H]1CC[C@H](C)[C@@H]2CC(=O)C(C)=C2C1`, for which the IC50 in data set [1] was 7.4 µM; in data set [4], 17.3 µM; in data set [6], 17.3 µM. Also, the selectivity ratio in data set [2] stood at 38.9; in data set [7], 38.9; in data set [5], 90.8. For the same compound, the CC50 in data set [3] amounted to 672 µM.

For the compound `C=C(C(=O)OCCCCCN1CCN(C)CC1)[C@@H]1CC[C@H](C)[C@@H]2CC(=O)C(C)=C2C1`, the IC50 came to 17.1 µM in data set [1], 20.6 µM in data set [4] and 20.6 µM in data set [6]. The selectivity ratio in data set [2] is 10.1; in data set [7] it was 10.1; in data set [5] it was 12.1. For the same compound, the CC50 in data set [3] was determined as 207 µM.

Turning to `C=C(C(=O)OCCCCCCCCN1CCN(C)CC1)[C@@H]1CC[C@H](C)[C@@H]2CC(=O)C(C)=C2C1`, the IC50 in data set [1], in data set [4] and in data set [6] was above 26.9 µM each time. In addition, in data set [3], the CC50 was determined as 188 µM.

Consider `C=C(C(=O)OCCCCCCBr)[C@@H]1CC[C@H](C)[C@@H]2CC(=O)C(C)=C2C1`, for which the values for the IC50 in data set [1], in data set [4] and in data set [6] were 39.6 µM, 52.1 µM and 52.1 µM, respectively. Further, the selectivity ratio in data set [2] came to 9; in data set [7] it was 9; in data set [5], 11.8. In data set [3], the CC50 is 469 µM.

As to `C=C(C(=O)OCCCCCCCCBr)[C@@H]1CC[C@H](C)[C@@H]2CC(=O)C(C)=C2C1`, the IC50 in data set [1] was 12.4 µM; in data set [4], 14.1 µM; in data set [6], above 28.2 µM. Further, the results for the selectivity ratio in data set [2] and in data set [5] were 10.4 and 11.8, respectively. Further, in data set [3], the CC50 came to 146 µM.

On to `C=C(C(=O)OCCCCCCCCn1cncn1)[C@@H]1CC[C@H](C)[C@@H]2CC(=O)C(C)=C2C1`, for which the IC50 in data set [1] amounted to 7.2 µM; in data set [4], 5.2 µM; in data set [6], 3.2 µM. For the same compound, the figures for the selectivity ratio in data set [2], in data set [7] and in data set [5] were 38.8, 62.9 and 28, respectively. Moreover, the CC50 in data set [3] was 202 µM.

For `C=C(C(=O)OCCCCCBr)[C@@H]1CC[C@H](C)[C@@H]2CC(=O)C(C)=C2C1`, the results for the half-maximal inhibitory concentration (IC50) in data set [1], in data set [4] and in data set [6] were 19.3 µM, 19.3 µM and above 31.2 µM, respectively. The selectivity ratio in data set [2] and in data set [5] was 2.8 throughout. Besides, the CC50 in data set [3] is 54 µM.

Values taken from ChEMBL document CHEMBL1955749, “Synthesis and anti-influenza activity of aminoalkyl rupestonates” (Bioorg Med Chem Lett, 2012).
